Source: ChEMBL document CHEMBL1201862, “PubChem BioAssay data set” (2004)
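Following 48 hours of exposure in 96-well plates, responses at five concentrations were used to interpolate endpoints linearly. Abbreviation: GI50, concentration required for 50% inhibition of growth.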 Activity calls are given as the source filed them. Cut-off read from the data, not from the text of the source: active = GI50 up to about 1.1 µM and inactive = higher.

Assays:
Assay in all cases: growth of human tumour cells (NCI), 48 h
CCRF-CEM = system: CCRF-CEM
Hs-578T = system: Hs-578T
HT-29 = system: HT-29
RXF 393 = system: RXF 393
KM12 = system: KM12
UACC-257 = system: UACC-257
MDA-MB-231 = system: MDA-MB-231
SK-OV-3 = system: SK-OV-3
HCT-15 = system: HCT-15
NCI/ADR-RES = system: NCI/ADR-RES
Malme-3M = system: Malme-3M
OVCAR-3 = system: OVCAR-3
A498 = system: A498
SW-620 = system: SW-620
ACHN = system: ACHN
NCI-H522 = system: NCI-H522
SNB-19 = system: SNB-19
T47D = system: T47D
SF-539 = system: SF-539
SR = system: SR
UACC-62 = system: UACC-62
U-251 = system: U-251
NCI-H226 = system: NCI-H226
MOLT-4 = system: MOLT-4
SNB-75 = system: SNB-75
HCC 2998 = system: HCC 2998
HCT-116 = system: HCT-116
LOX IMVI = system: LOX IMVI
PC-3 = system: PC-3
SF-268 = system: SF-268
MDA-N = system: MDA-N
SF-295 = system: SF-295
CAKI-1 = system: CAKI-1
SK-MEL-2 = system: SK-MEL-2
K562 = system: K562
M14 = system: M14
MCF7 = system: MCF7
TK-10 = system: TK-10
HOP-92 = system: HOP-92
NCI-H460 = system: NCI-H460
UO-31 = system: UO-31
SK-MEL-5 = system: SK-MEL-5
BT-549 = system: BT-549
MDA-MB-435 = system: MDA-MB-435
SK-MEL-28 = system: SK-MEL-28
OVCAR-8 = system: OVCAR-8
OVCAR-4 = system: OVCAR-4
HOP-62 = system: HOP-62
NCI-H23 = system: NCI-H23
OVCAR-5 = system: OVCAR-5
DU-145 = system: DU-145
COLO 205 = system: COLO 205
IGROV-1 = system: IGROV-1
RPMI-8226 = system: RPMI-8226
786-0 = system: 786-0
HL-60 = system: HL-60
EKVX = system: EKVX
A549 = system: A549
SN12C = system: SN12C
DMS-273 = system: DMS-273
HOP-18 = system: HOP-18
M19-MEL = system: M19-MEL
DLD-1 = system: DLD-1
DMS-114 = system: DMS-114
KM-20L2 = system: KM-20L2
SNB-78 = system: SNB-78
LXFL 529 = system: LXFL 529

Measured: GI50

CC(C)=CC(Cc1ccccc1)S(=O)(=O)c1nc2ccccc2s1 (stereo not drawn)
17.7 µM: HCT-15
inactive: CCRF-CEM 2.37 µM | Hs-578T 29.6 µM | HT-29 19.3 µM | RXF 393 19.7 µM | KM12 18.7 µM | UACC-257 21 µM | MDA-MB-231 19.8 µM | SK-OV-3 22.4 µM | NCI/ADR-RES 19.7 µM | Malme-3M 14.5 µM | OVCAR-3 15.3 µM | A498 19.9 µM | SW-620 18.7 µM | ACHN 18.8 µM | NCI-H522 11.3 µM | SNB-19 17.4 µM | T47D 23.6 µM | SF-539 16.2 µM | SR 1.98 µM | UACC-62 17.2 µM | U-251 15.9 µM | NCI-H226 13.3 µM | MOLT-4 2.98 µM | SNB-75 16.6 µM | HCC 2998 19.2 µM | HCT-116 14 µM | LOX IMVI 2.69 µM | PC-3 16.7 µM | SF-268 15.6 µM | MDA-N 8.13 µM | SF-295 26.6 µM | CAKI-1 4.05 µM | SK-MEL-2 13.1 µM | K562 12.6 µM | M14 12.5 µM | MCF7 14.7 µM | TK-10 20 µM | HOP-92 16.6 µM | NCI-H460 21.3 µM | UO-31 13.8 µM | SK-MEL-5 13.6 µM | BT-549 14.6 µM | MDA-MB-435 11 µM | SK-MEL-28 16.1 µM | OVCAR-8 15.4 µM | OVCAR-4 15.9 µM | HOP-62 28.8 µM | NCI-H23 13.5 µM | OVCAR-5 19.2 µM | DU-145 17.7 µM | COLO 205 17 µM | IGROV-1 19.7 µM | RPMI-8226 10.5 µM | 786-0 14.6 µM | HL-60 2.84 µM | EKVX 19.6 µM | A549 23.4 µM | SN12C 12 µM

O=C(Nc1cc(Cl)ccc1Cl)c1cc2ccccc2oc1=O
inactive: DMS-273 98.2 µM | CCRF-CEM 46.8 µM | HT-29 > 100 µM | RXF 393 37.2 µM | KM12 > 100 µM | UACC-257 97.3 µM | HOP-18 20.9 µM | SK-OV-3 38.9 µM | Malme-3M 18 µM | OVCAR-3 77.6 µM | SW-620 > 100 µM | ACHN 39.3 µM | NCI-H522 > 100 µM | SF-539 > 100 µM | UACC-62 > 100 µM | U-251 59.3 µM | MOLT-4 94.8 µM | SNB-75 15.7 µM | M19-MEL > 100 µM | HCT-116 > 100 µM | DLD-1 > 100 µM | LOX IMVI 61 µM | DMS-114 78 µM | SF-295 43.3 µM | SK-MEL-2 > 100 µM | K562 > 100 µM | M14 > 100 µM | KM-20L2 > 100 µM | TK-10 > 100 µM | NCI-H460 53.2 µM | SK-MEL-5 > 100 µM | SK-MEL-28 > 100 µM | OVCAR-8 88.3 µM | HOP-62 45.6 µM | NCI-H23 > 100 µM | COLO 205 > 100 µM | IGROV-1 > 100 µM | RPMI-8226 > 100 µM | 786-0 51.8 µM | HL-60 > 100 µM | EKVX > 100 µM | A549 > 100 µM | SN12C 75.9 µM
> 100 µM: HCT-15

COc1ccc(CNC2=Nc3ccncc3S(=O)(=O)N2c2ccccc2)cc1
inactive: CCRF-CEM 19.4 µM | Hs-578T 33.8 µM | HT-29 48.3 µM | RXF 393 50.7 µM | KM12 35 µM | UACC-257 37.4 µM | MDA-MB-231 > 100 µM | SK-OV-3 > 100 µM | NCI/ADR-RES 35.9 µM | Malme-3M 49.9 µM | OVCAR-3 82.8 µM | A498 35.9 µM | SW-620 33 µM | ACHN 34 µM | NCI-H522 34.1 µM | SNB-19 > 100 µM | T47D 29.3 µM | SF-539 4.74 µM | SR 23.3 µM | UACC-62 40.2 µM | U-251 68.1 µM | NCI-H226 17 µM | MOLT-4 19 µM | SNB-75 39.1 µM | HCC 2998 3.77 µM | HCT-116 36.5 µM | LOX IMVI 46.9 µM | PC-3 53.6 µM | SF-268 52.4 µM | MDA-N 29.9 µM | SF-295 65 µM | CAKI-1 > 100 µM | SK-MEL-2 41.7 µM | K562 29 µM | M14 57.7 µM | MCF7 38.5 µM | TK-10 20.3 µM | HOP-92 29.9 µM | NCI-H460 43.1 µM | UO-31 45.7 µM | SK-MEL-5 19 µM | BT-549 23.2 µM | MDA-MB-435 24.9 µM | SK-MEL-28 21.6 µM | OVCAR-8 49.8 µM | OVCAR-4 37.4 µM | HOP-62 > 100 µM | NCI-H23 35.5 µM | OVCAR-5 > 100 µM | DU-145 45.7 µM | COLO 205 > 100 µM | IGROV-1 39.9 µM | RPMI-8226 16.4 µM | 786-0 47.4 µM | HL-60 12.8 µM | EKVX 65 µM | A549 40.6 µM | SN12C 80.9 µM
34.3 µM: HCT-15

COC(OC)c1cc2c(cc1C=O)OCO2
active: Malme-3M 0.276 µM
inactive: DMS-273 > 100 µM | CCRF-CEM > 100 µM | HT-29 > 100 µM | RXF 393 > 100 µM | KM12 > 100 µM | UACC-257 > 100 µM | SK-OV-3 43.8 µM | OVCAR-3 75.5 µM | SW-620 > 100 µM | SNB-78 > 100 µM | ACHN > 100 µM | NCI-H522 > 100 µM | SNB-19 > 100 µM | SF-539 > 100 µM | SR > 100 µM | UACC-62 44 µM | U-251 > 100 µM | NCI-H226 > 100 µM | MOLT-4 > 100 µM | SNB-75 21.2 µM | M19-MEL > 100 µM | HCC 2998 > 100 µM | HCT-116 > 100 µM | DLD-1 34.9 µM | SF-268 > 100 µM | DMS-114 > 100 µM | CAKI-1 34.1 µM | SK-MEL-2 > 100 µM | K562 64.9 µM | M14 48.9 µM | KM-20L2 > 100 µM | TK-10 > 100 µM | HOP-92 80.7 µM | NCI-H460 > 100 µM | UO-31 45.3 µM | SK-MEL-5 30.6 µM | SK-MEL-28 > 100 µM | OVCAR-8 > 100 µM | OVCAR-4 > 100 µM | HOP-62 > 100 µM | NCI-H23 > 100 µM | OVCAR-5 > 100 µM | IGROV-1 > 100 µM | 786-0 > 100 µM | HL-60 47.2 µM | EKVX > 100 µM | A549 > 100 µM | SN12C > 100 µM

Cc1nc2c(=O)[nH]c(=O)n(C)c2[nH]c1=O.c1ccncc1
> 100 µM: HCT-15
inactive: DMS-273 > 100 µM | CCRF-CEM 10 µM | HT-29 > 100 µM | RXF 393 > 100 µM | KM12 > 100 µM | UACC-257 > 100 µM | SK-OV-3 > 100 µM | Malme-3M > 100 µM | OVCAR-3 > 100 µM | A498 > 100 µM | SW-620 > 100 µM | ACHN > 100 µM | NCI-H522 > 100 µM | SNB-19 > 100 µM | SR > 100 µM | UACC-62 > 100 µM | U-251 > 100 µM | NCI-H226 > 100 µM | MOLT-4 > 100 µM | SNB-75 > 100 µM | M19-MEL > 100 µM | HCC 2998 > 100 µM | HCT-116 > 100 µM | DLD-1 > 100 µM | LOX IMVI > 100 µM | SF-268 > 100 µM | CAKI-1 > 100 µM | SK-MEL-2 > 100 µM | K562 > 100 µM | M14 > 100 µM | KM-20L2 > 100 µM | TK-10 > 100 µM | HOP-92 > 100 µM | NCI-H460 > 100 µM | UO-31 > 100 µM | SK-MEL-5 > 100 µM | LXFL 529 > 100 µM | SK-MEL-28 > 100 µM | OVCAR-8 > 100 µM | OVCAR-4 > 100 µM | HOP-62 > 100 µM | NCI-H23 > 100 µM | OVCAR-5 > 100 µM | COLO 205 > 100 µM | IGROV-1 > 100 µM | RPMI-8226 > 100 µM | 786-0 > 100 µM | HL-60 > 100 µM | EKVX > 100 µM | A549 > 100 µM | SN12C > 100 µM
